The values that follow come from patent publication US9127005B2, “Isoform selective phospholipase D inhibitors” (Vanderbilt University, priority 2009, dated 2015).

The target of experiment [1] is T1, PLD2 (Homo sapiens (Human), UniProt O14939). Kind of experiment: Cellular CRCs: PLD2 response in HEK293gfpPLD2 (293-PLD2) cells. The experiment is classed as cell-based. Conditions: for Fold Selective: cellular CRCs, selectivity for PLD2 (293-PLD2) over PLD1 (Calu-1). The text has this:
In some aspects PLD activity in the cell is mediated predominately by PLD2. Thus, in some aspects, the cell stably overexpresses recombinant PLD2. For example, the cell can be a HEK293 cell stably overexpressing green florescent protein (GFP)-tagged PLD2.

The target in experiment [2] is T2, PLD1 (Homo sapiens (Human), UniProt Q13393). Kind of experiment: Cellular CRCs: PLD1 response in Calu-1 cells. The experiment is classed as cell-based. From the text:
In some aspects PLD activity in the cell is mediated predominately by PLD1. Thus, in some aspects, the cell is the human non-small-cell lung cancer (NSCLC) cell line Calu-1. In some aspects, the cell has been stimulated to activate PLD1 in the cell. For example, the cell can be stimulated with phorbol 12-myristate 13-acetate (PMA).

The target in experiment [3] is T1, PLD2. The experiment in a line: Exogenous CRCs: in vitro PLD2 response. The experiment is classed as biochemical. The text has this:
(§1) The screening method can comprise providing a sample comprising a phosholipid and a PLD under conditions that allow the hydrolysis of the phospholipids to a phosphatidic acid, contacting the sample with a candidate agent, measuring enzymatic activity, comparing the enzymatic activity to a control, a decrease in enzymatic activity compared to the control identifying an agent that inhibits the PLD.
(§2) In some aspects, the PLD is a myr-Aff-1-stimulated mammalian human PLD1 or human PLD2.

In experiment [4] the target is T2, PLD1. Kind of experiment: Exogenous CRCs: in vitro PLD1 response. The experiment is classed as biochemical.
Description: as §1, §2

The mark [5] stands for this setting: HEK293 cells overexpressing GFP-tagged PLD2, read-out: Cellular CRCs 293-PLD2 IC50.
Where [6] appears, read: Calu-1 cells (PLD1), read-out: Cellular CRCs Calu-1 IC50.
Where [7] appears, read: exogenous (in vitro) PLD2, read-out: Exogenous CRCs PLD2 IC50.

T2 sequence (Q13393 whole entry): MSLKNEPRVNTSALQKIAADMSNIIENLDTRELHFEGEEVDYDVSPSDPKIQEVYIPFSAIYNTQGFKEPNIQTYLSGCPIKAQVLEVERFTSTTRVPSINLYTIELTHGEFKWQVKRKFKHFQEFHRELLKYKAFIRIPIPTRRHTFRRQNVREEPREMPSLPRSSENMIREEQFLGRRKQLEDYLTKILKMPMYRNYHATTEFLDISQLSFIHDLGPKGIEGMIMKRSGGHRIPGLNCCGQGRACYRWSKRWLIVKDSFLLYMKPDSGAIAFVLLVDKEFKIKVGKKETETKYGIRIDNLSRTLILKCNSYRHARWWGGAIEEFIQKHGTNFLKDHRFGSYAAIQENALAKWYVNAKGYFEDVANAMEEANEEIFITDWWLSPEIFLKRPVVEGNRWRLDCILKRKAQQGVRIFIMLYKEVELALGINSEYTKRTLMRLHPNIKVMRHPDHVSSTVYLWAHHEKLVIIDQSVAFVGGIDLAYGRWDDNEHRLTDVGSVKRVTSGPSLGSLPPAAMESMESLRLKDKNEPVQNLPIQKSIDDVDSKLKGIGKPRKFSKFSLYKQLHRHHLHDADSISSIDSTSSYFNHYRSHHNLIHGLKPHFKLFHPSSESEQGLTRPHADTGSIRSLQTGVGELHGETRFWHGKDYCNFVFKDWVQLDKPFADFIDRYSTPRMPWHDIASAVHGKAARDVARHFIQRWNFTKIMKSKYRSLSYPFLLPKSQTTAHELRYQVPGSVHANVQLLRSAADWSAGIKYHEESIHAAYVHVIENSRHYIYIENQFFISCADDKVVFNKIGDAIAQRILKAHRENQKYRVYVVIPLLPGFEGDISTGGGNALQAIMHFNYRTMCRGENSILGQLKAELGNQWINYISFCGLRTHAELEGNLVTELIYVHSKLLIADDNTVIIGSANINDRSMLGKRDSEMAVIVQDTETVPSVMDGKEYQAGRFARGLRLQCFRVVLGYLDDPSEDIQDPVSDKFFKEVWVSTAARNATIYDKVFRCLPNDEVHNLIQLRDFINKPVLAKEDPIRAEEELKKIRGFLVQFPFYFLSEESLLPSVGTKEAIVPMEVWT
T1 sequence (O14939 whole entry): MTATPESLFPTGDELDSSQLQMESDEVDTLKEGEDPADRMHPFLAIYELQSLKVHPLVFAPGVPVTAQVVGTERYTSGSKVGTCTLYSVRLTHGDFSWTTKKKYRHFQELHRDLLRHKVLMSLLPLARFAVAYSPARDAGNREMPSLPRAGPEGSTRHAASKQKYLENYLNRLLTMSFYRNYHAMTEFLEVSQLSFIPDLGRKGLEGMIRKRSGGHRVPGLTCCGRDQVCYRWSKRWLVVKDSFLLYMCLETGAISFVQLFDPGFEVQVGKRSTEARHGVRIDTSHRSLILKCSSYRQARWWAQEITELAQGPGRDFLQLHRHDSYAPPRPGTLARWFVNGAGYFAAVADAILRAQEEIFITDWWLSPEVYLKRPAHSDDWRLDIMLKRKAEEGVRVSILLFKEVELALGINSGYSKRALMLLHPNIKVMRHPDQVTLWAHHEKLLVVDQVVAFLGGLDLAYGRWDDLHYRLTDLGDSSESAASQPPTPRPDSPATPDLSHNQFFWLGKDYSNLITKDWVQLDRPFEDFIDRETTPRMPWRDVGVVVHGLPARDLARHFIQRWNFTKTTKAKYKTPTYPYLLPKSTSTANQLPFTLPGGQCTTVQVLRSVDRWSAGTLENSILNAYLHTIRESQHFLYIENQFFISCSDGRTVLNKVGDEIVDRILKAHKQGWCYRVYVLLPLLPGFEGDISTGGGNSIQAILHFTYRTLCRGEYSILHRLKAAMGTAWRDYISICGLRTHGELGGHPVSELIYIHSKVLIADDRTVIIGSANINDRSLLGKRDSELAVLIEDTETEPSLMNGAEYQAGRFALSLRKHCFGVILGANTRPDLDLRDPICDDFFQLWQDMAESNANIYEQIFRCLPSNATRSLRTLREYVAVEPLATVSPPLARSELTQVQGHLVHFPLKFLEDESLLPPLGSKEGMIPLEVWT

As to `C[C@@H](CN1CCC2(CC1)C(=O)NC[C@H]2c1ccc(F)cc1)NC(=O)c1ccc2ccccc2c1` [P1Q, N-((S)-1-((S)-4-(4-fluorophenyl)-1-oxo-2,8-diazaspiro[4.5]decan-8-yl)propan-2-yl)-2-naphthamide 2,2,2-trifluoroacetate], the figures for the IC50 on PLD2 [1] (setting [5]) and at PLD1 [2] (setting [6]) were 540 nM and 93 nM, respectively.
For the compound `C[C@@H](CN1CCC2(CC1)C(=O)NC[C@@H]2c1ccc(F)cc1)NC(=O)c1ccc(F)cc1` [NGH, 4-fluoro-N-((S)-1-((R)-4-(4-fluorophenyl)-1-oxo-2,8-diazaspiro[4.5]deean-8-yl)propan-2-yl)benzamide 2,2,2-txifluoroacetate], the IC50 at PLD2 [3] came to 2240 nM; against PLD2 [1], 210 nM; against PLD1 [2] it was 250 nM.
For the compound `C[C@@H](CN1CCC2(CC1)C(=O)NC[C@H]2c1ccc(F)cc1)NC(=O)c1cc2ccccc2[nH]1` [NG3, N-((S)-1-((S)-4-(4-fluorophenyl)-1-oxo-2,8-diazaspiro[4.5]decan-8-yl)propan-2-yl)-1H-indole-2-carboxamide 2,2,2-trifluoroacetate], the IC50 worked out at 140 nM against PLD2 [1] and 16 nM at PLD1 [2] (setting [6]).
Take `O=C(NCCN1CCC2(CC1)C(=O)NC[C@@H]2c1ccc(F)cc1)C1C[C@H]1c1ccccc1.O=C(O)C(F)(F)F` (stereo partly drawn) [P1E, trans-N-(2-((R)-4-(4-fluorophenyl)-1-oxo-2,8-diazaspiro[4.5]decan-8-yl)ethyl)-2-phenylcyclopropane-carboxamide 2,2,2-trifluoroacetate]: the IC50 at PLD2 [1] (setting [5]) was determined as 760 nM; on PLD1 [2] (setting [6]) it was 6100 nM. Besides, the “Fold Selective” value at PLD2 [1] is on record as 8-fold PLD2.
On to `C[C@@H](CN1CCC2(CC1)C(=O)NCC2c1ccc(F)cc1)NC(=O)C1C[C@H]1c1ccccc1` (stereo partly drawn) [NGQ, trans-N-((S)-1-((S)-4-(4-fluorophenyl)-1-oxo-2,8-diazaspiro[4.5]decan-8-yl)propan-2-yl)-2-phenylcyclopropane-carboxamide 2,2,2-trifluoroacetate], for which the IC50 was more than 20000 nM on PLD2 [1] (setting [5]) and 3000 nM at PLD1 [2] (setting [6]).
As for `O=C(NCCN1CCC2(CC1)C(=O)NC[C@@H]2c1ccc(F)cc1)c1cc2ccccc2[nH]1.O=C(O)C(F)(F)F` [P23, (R)-N-(2-(4-(4-fluorophenyl)-1-oxo-2,8-diazaspiro[4.5]decan-8-yl)ethyl)-1H-indole-2-carboxamide 2,2,2-trifluoroacetate], on PLD2 [1], the IC50 stood at 2.5 nM and the “Fold Selective” value stood at 8 fold PLD2. The IC50 against PLD1 [2] stood at 21 nM.
Take “4-fluoro-N-((S)-1- ((S)-4-(4- fluorophenyl)-1-oxo- 2,8- diazaspiro[4.5]decan- 8-yl)propan-2- yl)benzamide 2,2,2- trifluoroacetate [P2B]”: the IC50 at PLD1 [4] is 5150 nM; on PLD2 [3] (setting [7]), 9440 nM; on PLD2 [1] (setting [5]) it was 2800 nM; on PLD1 [2] (setting [6]), 1700 nM.
Turning to `O=C(NCCN1CCC2(CC1)C(=O)NC[C@H]2c1ccc(F)cc1)c1ccc2ccccc2c1.O=C(O)C(F)(F)F` [P1D], the figures for the IC50 on PLD2 [1] (setting [5]) and at PLD1 [2] (setting [6]) were 220 nM and 3700 nM, respectively. The “Fold Selective” value on PLD2 [1] is listed as 17-Fol PLD2 fold.
As for `O=C(C#Cc1ccccc1)NCCN1CCC2(CC1)C(=O)NC[C@@H]2c1ccc(F)cc1.O=C(O)C(F)(F)F` [P0Q, (R)-N-(2-(4-(4-fluorophenyl)-1-oxo-2,8-diazaspiro[4.5]decan-8-yl)ethyl)-3-phenylpropiolamide 2,2,2-trifluoroacetate], on PLD2 [1], inhibition was half-maximal at 70 nM (IC50) and the “Fold Selective” value is recorded as 17-fold PLD2. In addition, at PLD1 [2], the IC50 was determined as 1200 nM.
Regarding `C[C@@H](CN1CCC2(CC1)C(=O)NC[C@@H]2c1ccc(F)cc1)NC(=O)C#Cc1ccccc1` [NGF, N—((S)-1-((R)-4-(4-Fluorophenyl)-1-oxo-2,8-diazaspiro[4.5]decan-8-yl)propan-2-yl)-3-phenylpropiolamide 2,2,2-trifluoroacetate], the half-maximal inhibitory concentration (IC50) at PLD2 [1] is 150 nM; at PLD1 [2] (setting [6]), 16 nM.
Regarding `O=C(NCCN1CCC2(CC1)C(=O)NC[C@H]2c1ccc(F)cc1)c1ccc2ccccc2c1.O=C(O)C(F)(F)F` [P22, (S)-N-(2-(4-(4-fluorophenyl)-1-oxo-2,8-diazaspiro[4.5]decan-8-yl)ethyl)-2-naphthamide 2,2,2-trifluoroacetate], the IC50 was determined as 3900 nM on PLD1 [4], 73 nM at PLD2 [3] (setting [7]), 26 nM on PLD2 [1] (setting [5]) and 820 nM at PLD1 [2] (setting [6]). At PLD2 [1] (trifluoroacetate), the “Fold Selective” value is 32-fold PLD2.
Turning to `C[C@@H](CN1CCC2(CC1)C(=O)NC[C@@H]2c1ccc(F)cc1)NC(=O)C1C[C@H]1c1ccccc1` (stereo partly drawn) [P0A, trans-N-((S)-1-((R)-4-(4-fluorophenyl)-1-oxo-2,8-diazaspiro[4.5]decan-8-yl)propan-2-yl)-2-phenylcyclopropane-carboxamide 2,2,2-trifluoroacetate], the IC50 at PLD2 [1] (setting [5]) is 14000 nM; at PLD1 [2] (setting [6]), 600 nM.
As to `C[C@@H](CN1CCC2(CC1)C(=O)NC[C@@H]2c1ccc(F)cc1)NC(=O)c1cc2ccccc2[nH]1` [P1G, N-((S)-l-((R)-4-(4-fluorophenyl)-1-oxo-2,8-diazaspiro[4.5]decan-8-yl)propan-2-yl)-1H-indole-2-carboxamide 2,2,2-trifluoroacetate], the IC50 at PLD2 [1] turned out to be 12 nM; against PLD1 [2], 1 nM.
Consider `C[C@@H](CN1CCC2(CC1)C(=O)NC[C@H]2c1ccc(F)cc1)NC(=O)C#Cc1ccccc1` [NJ5, N-((S)-1-((S)-4-(4-fluorophenyl)-1-oxo-2,8-diazaspiro[4.5]decan-8-yl)propan-2-yl)-3-phenylpropiolamide 2,2,2-trifluoroacetate], for which the IC50 at PLD2 [1] came to 4000 nM; on PLD1 [2] (setting [6]), 320 nM.

A word on the IC50: it is the concentration that inhibits the measured activity by half.
